Values quoted from earlier work as cited in US20170096549A1, “MULTIVALENT CATION FORMULATIONS OF PARTIALLY DESULFATED HEPARINS” (Cantex Pharmaceuticals, Inc., priority 2014, published 2017).
pKd: −log10 of the molar value. Where two headings read alike, the source gives them in different places.

Columns and labels:
[1] = target: IIa (Homo sapiens, UniProt P00734+P01008)
[2] = target: anti-thrombin III (Homo sapiens, UniProt P01008)
[3] = target: Xa (Homo sapiens, UniProt P00742)
[4] = tested on: anti-coagulant activity

Chain of anti-thrombin III (P01008 33-464, species assumed): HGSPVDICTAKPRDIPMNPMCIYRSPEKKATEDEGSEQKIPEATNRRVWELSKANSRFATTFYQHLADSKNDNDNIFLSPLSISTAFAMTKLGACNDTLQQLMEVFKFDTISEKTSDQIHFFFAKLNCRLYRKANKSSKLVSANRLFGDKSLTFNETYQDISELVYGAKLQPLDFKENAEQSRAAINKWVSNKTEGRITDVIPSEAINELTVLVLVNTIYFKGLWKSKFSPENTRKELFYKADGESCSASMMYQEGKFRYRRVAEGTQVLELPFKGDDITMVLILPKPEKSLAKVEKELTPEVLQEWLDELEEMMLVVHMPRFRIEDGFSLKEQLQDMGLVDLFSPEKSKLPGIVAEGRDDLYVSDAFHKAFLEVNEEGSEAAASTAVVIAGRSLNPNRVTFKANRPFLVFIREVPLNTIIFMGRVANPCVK
Chain of Xa (P01008 33-464 partner): as the sequence (P01008 33-464, species assumed) above
Chain of Xa (P00742 235-488 limits assumed): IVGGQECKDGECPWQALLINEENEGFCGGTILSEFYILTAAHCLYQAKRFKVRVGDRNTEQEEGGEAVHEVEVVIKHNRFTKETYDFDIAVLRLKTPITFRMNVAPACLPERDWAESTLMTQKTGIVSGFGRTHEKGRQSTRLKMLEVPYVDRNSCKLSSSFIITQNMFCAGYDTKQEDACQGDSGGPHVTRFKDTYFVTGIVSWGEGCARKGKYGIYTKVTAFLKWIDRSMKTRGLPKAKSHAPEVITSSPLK

- anti-IIa activity [1]: 165-190 U/mg
- Kd for anti-thrombin III [2]: ~22 µg/mL
- pKd ([2]; listed as heparin): 5.81
- pKd ([2]; listed as unfractionated heparin): ~5.81
- anti-Xa activity [3]: 165-190 U/mg
Substance: Unfractionated heparin
- anti-coagulant activity in the USP anti-coagulant assay [4]: 165-190 U/mg
